The record followed here is US12138263B2, “Pyrazolo[3,4-b]pyrazine SHP2 phosphatase inhibitors and methods of use thereof” (Relay Therapeutics, Inc., priority 2018, dated 2024).

pIC50: −log10 of the molar value. Structures can show the parent of a compound that is named as a salt.

The target in one test is SHP2 (Homo sapiens (Human), UniProt Q06124). Description: SHP2 allosteric inhibition assay (DiFMUP prompt fluorescence). The format is biochemical. The following applies: Table 1; 0.25 nM SHP2 with 0.5 μM peptide IRS1_pY1172(dPEG8)pY1222, substrate DiFMUP 100 μM.
Chain of SHP2 (Q06124 whole entry): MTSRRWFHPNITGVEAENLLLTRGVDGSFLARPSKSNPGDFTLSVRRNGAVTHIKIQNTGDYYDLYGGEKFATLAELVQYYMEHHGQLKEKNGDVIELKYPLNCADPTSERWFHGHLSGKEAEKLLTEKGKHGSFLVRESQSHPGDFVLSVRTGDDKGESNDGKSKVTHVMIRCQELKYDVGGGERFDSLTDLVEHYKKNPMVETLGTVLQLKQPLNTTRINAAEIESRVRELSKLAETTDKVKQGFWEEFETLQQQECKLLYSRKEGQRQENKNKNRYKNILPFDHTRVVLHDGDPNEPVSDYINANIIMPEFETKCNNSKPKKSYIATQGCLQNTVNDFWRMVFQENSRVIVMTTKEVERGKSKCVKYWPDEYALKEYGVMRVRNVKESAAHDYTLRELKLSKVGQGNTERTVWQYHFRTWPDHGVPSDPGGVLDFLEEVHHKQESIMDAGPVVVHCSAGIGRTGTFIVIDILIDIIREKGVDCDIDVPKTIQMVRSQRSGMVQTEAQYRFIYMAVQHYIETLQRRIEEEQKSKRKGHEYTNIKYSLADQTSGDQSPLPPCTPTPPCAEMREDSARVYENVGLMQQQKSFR
Consider `CC1(CN)CCN(c2cnc3c(N4CCCc5c(OS(=O)(=O)F)cccc54)n[nH]c3n2)CC1` [Compound 3A], for which the pIC50 is > 6.00. On to `C[C@@H]1OCC2(CCN(c3cnc4c(N5CCCc6cc(OS(=O)(=O)F)ccc65)n[nH]c4n3)CC2)[C@@H]1N` [Compound 7A, 1-(6-((3S,4S)-4-amino-3-methyl-2-oxa-8-azaspiro[4.5]decan-8-yl)-1H-pyrazolo[3,4-b]pyrazin-3-yl)-1,2,3,4-tetrahydroquinolin-6-yl Sulfurofluoridate], for which the pIC50 is > 6.00. `O=S(=O)(F)Oc1cccc2c1CCCN2c1n[nH]c2nc(N3CCCCC3)cnc12` [Compound 2A]: the pIC50 was ≤ 5.00. Take `CC1(CN)CCN(c2cnc3c(N4CCCc5cc(OS(=O)(=O)F)ccc54)n[nH]c3n2)CC1` [Compound 6A]: the pIC50 was > 6.00. Still for that read-out and setting: the same measure for `O=S(=O)(F)Oc1cnc2c(N3CCCc4ncccc43)n[nH]c2n1` [Compound 8A]: ≤ 5.00.

The same test, now with this note: Table 2; 0.25 nM SHP2 with 0.5 μM peptide IRS1_pY1172(dPEG8)pY1222, substrate DiFMUP 100 μM.
Consider `Fc1c(Cl)cccc1-c1n[nH]c2nc(C3CCNCC3)cnc12` [Compound 2B], for which the pIC50 is > 6.00. The same measure, in the same setting: as for `NC1CCN(C(=O)c2cnc3c(-c4cccc(Cl)c4F)n[nH]c3n2)C1` (stereo not shown) [Compound 5B], the figure is 5.00 to 6.00.

For `NCc1ccn(Cc2cnc3c(-c4cccc(Cl)c4F)n[nH]c3n2)n1` [Compound 9B, (1-((3-(3-chloro-2-fluorophenyl)-1H-pyrazolo[3,4-b]pyrazin-6-yl)methyl)-1H-pyrazol-3-yl)methanamine], the pIC50 is ≤ 5.00. With `OC1(c2cnc3c(-c4cccc(Cl)c4F)n[nH]c3n2)CCNCC1` [Compound 8B], the pIC50 is > 6.00. For the compound `OCC1(c2cnc3c(-c4cccc(Cl)c4F)n[nH]c3n2)CCNCC1` [Compound 4B], the pIC50 was > 6.00.

Turning to `CC(C)(CN)c1cnc2c(N3CCCc4ncccc43)n[nH]c2n1` [Compound 12B, 2-(3-(3,4-dihydro-1,5-naphthyridin-1(2H)-yl)-1H-pyrazolo[3,4-b]pyrazin-6-yl)-2-methylpropan-1-amine], the pIC50 was ≤ 5.00. Still for that read-out and setting: the same measure for `NC(=O)C1(c2cnc3c(-c4cccc(Cl)c4F)n[nH]c3n2)CCNCC1` [Compound 3B]: > 6.00. Consider `CN(CCN)C(=O)c1cnc2c(-c3cccc(Cl)c3F)n[nH]c2n1` [Compound 7B], for which the negative-log IC50 (pIC50) was ≤ 5.00.

As to `CC(C)(CN)c1cnc2c(-c3cccc(Cl)c3F)n[nH]c2n1` [Compound 11B, 2-[3-(3-chloro-2-fluorophenyl)-1H-pyrazolo[3,4-b]pyrazin-6-yl]-2-methylpropan-1-amine], the pIC50 is ≤ 5.00.

Still in this test, the particulars now being: Table 3; 0.25 nM SHP2 with 0.5 μM peptide IRS1_pY1172(dPEG8)pY1222, substrate DiFMUP 100 μM.
As to `C[C@@H]1OCC2(CCN(c3nc4[nH]nc(N5CCCc6ncccc65)c4nc3CO)CC2)[C@@H]1N` [Compound 14C, (6-((3S,4S)-4-amino-3-methyl-2-oxa-8-azaspiro[4.5]decan-8-yl)-3-(3,4-dihydro-1,5-naphthyridin-1(2H)-yl)-1H-pyrazolo[3,4-b]pyrazin-5-yl)methanol], the pIC50 is > 6.00. On the same count and under the same terms, the same measure for `CC1(CN)CCN(c2nc3[nH]nc(-c4cccc(Cl)c4F)c3nc2C#N)CC1` [Compound 1C]: > 6.00; for `C[C@@H]1OCC2(CCN(c3nc4[nH]nc(N5CC[C@H](C)c6cc(C#N)ccc65)c4nc3CO)CC2)[C@@H]1N` [Compound 17C]: > 6.00; for `C[C@@H]1OCC2(CCN(c3nc4[nH]nc(-c5ccc6occc6c5)c4nc3CO)CC2)[C@@H]1N` [Compound 24C]: > 6.00. For the compound `CC1(N)CCN(c2nc3[nH]nc(-c4cccc(Cl)c4F)c3nc2C(=O)O)CC1` [Compound 4C, 6-(4-amino-4-methylpiperidin-1-yl)-3-(3-chloro-2-fluorophenyl)-1H-pyrazolo[3,4-b]pyrazine-5-carboxylic Acid], the pIC50 was 5.00 to 6.00. In the case of `COc1nc2c(N3CCCc4ncccc43)n[nH]c2nc1N1CCC2(CC1)CO[C@@H](C)[C@H]2N` [Compound 10C, (3S,4S)-8-[5-methoxy-3-(1,2,3,4-tetrahydro-1,5-naphthyridin-1-yl)-1H-pyrazolo[3,4-b]pyrazin-6-yl]-3-methyl-2-oxa-8-azaspiro[4.5]decan-4-amine dihydrochloride], the pIC50 was > 6.00.

Turning to `Cc1nc2c(N3CCCc4ncccc43)n[nH]c2nc1N1CCC2(CC1)CO[C@@H](C)[C@H]2N` [Compound 13C, (3S,4S)-8-(3-(3,4-dihydro-1,5-naphthyridin-1(2H)-yl)-5-methyl-1H-pyrazolo[3,4-b]pyrazin-6-yl)-3-methyl-2-oxa-8-azaspiro[4.5]decan-4-amine], the pIC50 is > 6.00.

For the compound `CC1(CN)CCN(c2nc3[nH]nc(N4CCCc5ncccc54)c3nc2C#N)CC1` [Compound 7C, 6-[4-(aminomethyl)-4-methylpiperidin-1-yl]-3-(1,2,3,4-tetrahydro-1,5-naphthyridin-1-yl)-1H-pyrazolo[3,4-b]pyrazine-5-carbonitrile], the pIC50 was > 6.00.

With `C[C@@H]1OCC2(CCN(c3nc4[nH]nc(N5CCCc6nc(-c7ccn[nH]7)ccc65)c4nc3CO)CC2)[C@@H]1N` [Compound 20C, (3-(6-(1H-pyrazol-5-yl)-3,4-dihydro-1,5-naphthyridin-1(2H)-yl)-6-((3S,4S)-4-amino-3-methyl-2-oxa-8-azaspiro[4.5]decan-8-yl)-1H-pyrazolo[3,4-b]pyrazin-5-yl)methanol], the pIC50 is > 6.00. For `COC1CC(N2CCN(c3n[nH]c4nc(N5CCC6(CC5)CO[C@@H](C)[C@H]6N)c(CO)nc34)c3ccc(C#N)cc32)C1` (stereo partly shown) [Compound 21C], the pIC50 is > 6.00. Same read-out and setting: the same measure for `COC(=O)c1nc2c(N3CCCc4ncccc43)n[nH]c2nc1N1CCC(C)(CN)CC1` [Compound 9C, methyl 6-[4-(aminomethyl)-4-methylpiperidin-1-yl]-3-(1,2,3,4-tetrahydro-1,5-naphthyridin-1-yl)-1H-pyrazolo[3,4-b]pyrazine-5-carboxylate]: > 6.00. Turning to `C[C@@H]1OCC2(CCN(c3nc4[nH]nc(N5CCCc6ncccc65)c4nc3C#N)CC2)[C@@H]1N` [Compound 12C, 6-[(3S,4S)-4-amino-3-methyl-2-oxa-8-azaspiro[4.5]decan-8-yl]-3-(1,2,3,4-tetrahydro-1,5-naphthyridin-1-yl)-1H-pyrazolo[3,4-b]pyrazine-5-carbonitrile], the pIC50 is > 6.00. `C[C@@H]1OCC2(CCN(c3nc4[nH]nc(-c5cccc(Cl)c5F)c4nc3CO)CC2)[C@@H]1N` [Compound 19C]: the pIC50 was > 6.00. In the case of `CC1(CN)CCN(c2nc3[nH]nc(N4CCCc5c4cccc5S(C)(=O)=O)c3nc2CO)CC1` [Compound 16C], the pIC50 is > 6.00. For `CC1(CN)CCN(c2nc3[nH]nc(N4CCCc5ncccc54)c3nc2O)CC1` [Compound 5C, 6-(4-(aminomethyl)-4-methylpiperidin-1-yl)-3-(3,4-dihydro-1,5-naphthyridin-1(2H)-yl)-1H-pyrazolo[3,4-b]pyrazin-5-ol], the pIC50 was > 6.00.

The same test, now with this note: Table 4; 0.25 nM SHP2 with 0.5 μM peptide IRS1_pY1172(dPEG8)pY1222, substrate DiFMUP 100 μM.
Take `CN(c1cnc2c(-c3cccc(Cl)c3F)n[nH]c2n1)c1ncccc1CCN` [Compound 2D, N-(3-(2-aminoethyl)pyridin-2-yl)-3-(3-chloro-2-fluorophenyl)-N-methyl-1H-pyrazolo[3,4-b]pyrazin-6-amine]: the pIC50 was > 6.00.

For `CN(c1cnc2c(-c3cccc(Cl)c3F)n[nH]c2n1)c1ncccc1CN` [Compound 1D, N-(3-(aminomethyl)pyridin-2-yl)-3-(3-chloro-2-fluorophenyl)-N-methyl-1H-pyrazolo[3,4-b]pyrazin-6-amine], the pIC50 is > 6.00.

The term pIC50 denotes the IC50 on a negative log10 scale, so that one unit is a factor of ten.
